In ChEMBL document CHEMBL6114969, “Ultra-short lipopeptides containing d-amino acid exhibiting excellent stability and antibacterial activity against gram-positive bacteria” (Eur J Med Chem, 2025):
≈ marks a conversion by molar mass, not a printed value. Calls of active or inactive are those of the source. The rule behind the calls is not given here.

What was measured:
[1] = tested on: Staphylococcus aureus; experiment: Antibacterial activity against methicillin-resistant Staphylococcus aureus ATCC 33591 infected in Balb/c mouse model of pneumonia infection assessed as reduction in TNF-alpha activity in lung at 10 mg/kg, ip administered thrice at 4, 8 and 12 hrs post-infection measured after 24 hrs post-infection by IHC analysis; format: functional, organism-based; conditions: time 20.0 hrs
[2] = tested on: Staphylococcus aureus; experiment: Antibacterial activity against methicillin-resistant Staphylococcus aureus ATCC 33591 infected in Balb/c mouse model of skin wound infection assessed as reduction in TNF-alpha activity in skin at 10 mg/kg, ip administered thrice at 1, 24 and 48 hrs post-infection measured after 14 days in presence of polymyxin B by IHC analysis; format: functional, organism-based; conditions: time 14.0 day
[3] = tested on: Staphylococcus aureus; experiment: Antibacterial activity against methicillin-resistant Staphylococcus aureus ATCC 33591 incubated for 18 to 24 hrs in presence of 0.5 mg/ml of pepsin by broth microdilution method; format: functional; conditions: time 18-24 hrs
[4] = tested on: Staphylococcus aureus; experiment: Antibacterial activity against methicillin-resistant Staphylococcus aureus ATCC 33591 assessed as fold change in MIC incubated for 18 to 24 hrs in presence of 10 percent mouse serum by broth microdilution method; format: functional; conditions: time 18-24 hrs
[5] = tested on: Mus musculus; experiment: In vivo inhibition of inflammation in Balb/c mouse model of acute systemic infection infected with methicillin-resistant Staphylococcus aureus ATCC 33591 assessed as reduction in TNF-alpha activity at 10 mg/kg, ip measured after 5 days; format: functional, organism-based; conditions: time 5.0 day
[6] = Toxicity in Balb/c mouse assessed as spleen pigmentation at 80 mg/kg, ip measured after 7 days; format: organism-based; conditions: in vivo, 168 h, time 7 day
[7] = tested on: Staphylococcus aureus; experiment: Antibacterial activity against methicillin-resistant Staphylococcus aureus ATCC 33591 infected in Balb/c mouse model of acute systemic infection assessed as reduction in inflammatory cell infiltration in lung at 10 mg/kg, ip measured after 5 days by H and E staining based analysis; format: functional, organism-based; conditions: time 5.0 day
[8] = tested on: Mus musculus; experiment: In vivo inhibition of inflammation in Balb/c mouse model of acute systemic infection infected with methicillin-resistant Staphylococcus aureus ATCC 33591 assessed as reduction in IL-1beta activity at 10 mg/kg, ip measured after 5 days; format: functional, organism-based; conditions: time 5.0 day
[9] = tested on: Staphylococcus aureus; experiment: Antibacterial activity against methicillin-resistant Staphylococcus aureus ATCC 33591 infected in Balb/c mouse model of pneumonia infection assessed as reduction in bleeding in lung at 10 mg/kg, ip administered thrice at 4, 8 and 12 hrs post-infection measured after 24 hrs post-infection by H and E staining based analysis; format: functional, organism-based; conditions: time 20.0 hrs
[10] = tested on: Staphylococcus aureus; experiment: Antibacterial activity against Staphylococcus aureus ATCC 25923 incubated for 18 to 24 hrs by broth microdilution method; format: functional; conditions: time 18-24 hrs
[11] = tested on: Staphylococcus aureus; experiment: Antibacterial activity against gentamicin-resistant Staphylococcus aureus ATCC 25923 incubated for 18 to 24 hrs; format: functional; conditions: time 18-24 hrs
[12] = Toxicity in Balb/c mouse assessed as survival rate at 20 mg/kg, ip measured after 7 days; format: organism-based; conditions: in vivo, time 7 day
[13] = tested on: Staphylococcus epidermidis; experiment: Antibacterial activity against Staphylococcus epidermidis ATCC 12228 incubated for 18 to 24 hrs by broth microdilution method; format: functional; conditions: time 18-24 hrs
[14] = tested on: Staphylococcus aureus; experiment: Antibacterial activity against methicillin-resistant Staphylococcus aureus ATCC 33591 infected in Balb/c mouse model of skin wound infection assessed as reduction in TNF-alpha activity in skin at 10 mg/kg, ip administered thrice at 1, 24 and 48 hrs post-infection measured after 14 days by IHC analysis; format: functional, organism-based; conditions: time 14.0 day
[15] = tested on: Staphylococcus aureus; experiment: Antibacterial activity against methicillin-resistant Staphylococcus aureus ATCC 33591 infected in Balb/c mouse model of acute systemic infection assessed as reduction in alveolar contraction in lung at 10 mg/kg, ip measured after 5 days by H and E staining based analysis; format: functional, organism-based; conditions: time 5.0 day
[16] = tested on: Staphylococcus aureus; experiment: Antibacterial activity against methicillin-resistant Staphylococcus aureus ATCC 33591 infected in Balb/c mouse model of acute systemic infection assessed as reduction in hypoplasia of white pulp in spleen at 10 mg/kg, ip measured after 5 days by H and E staining based analysis; format: functional, organism-based; conditions: time 5.0 day
[17] = tested on: Staphylococcus aureus; experiment: Antibacterial activity against methicillin-resistant Staphylococcus aureus ATCC 33591 infected in Balb/c mouse model of skin wound infection assessed as reduction in IL-1beta activity in skin at 10 mg/kg, ip administered thrice at 1, 24 and 48 hrs post-infection measured after 14 days by IHC analysis; format: functional, organism-based; conditions: time 14.0 day
[18] = Toxicity in Balb/c mouse assessed as change in serum ALT level at 20 to 80 mg/kg, ip measured after 7 days; format: organism-based; conditions: in vivo, 168 h, dose 20-80 mg/kg, time 7 day
[19] = tested on: Staphylococcus aureus; experiment: Antibacterial activity against methicillin-resistant Staphylococcus aureus ATCC 33591 incubated for 18 to 24 hrs in presence of 1 mg/ml of pepsin by broth microdilution method; format: functional; conditions: time 18-24 hrs
[20] = tested on: Staphylococcus aureus; experiment: Destruction of cell membrane in methicillin-resistant Staphylococcus aureus ATCC 33591 at 2 to 8 times MIC by absorbance based assay; format: functional, organism-based; conditions: time <= 360.0 min
[21] = tested on: Staphylococcus aureus; experiment: Antibacterial activity against methicillin-resistant Staphylococcus aureus ATCC 33591 infected in Balb/c mouse model of pneumonia infection assessed as reduction in alveolar contraction in lung at 10 mg/kg, ip administered thrice at 4, 8 and 12 hrs post-infection measured after 24 hrs post-infection by H and E staining based analysis; format: functional, organism-based
[22] = Toxicity in Balb/c mouse assessed as change in kidney co-efficient at 20 to 80 mg/kg, ip measured after 7 days; format: organism-based; conditions: in vivo, 168 h, dose 20-80 mg/kg, time 7 day
[23] = tested on: Staphylococcus aureus; experiment: Inhibition of gentamicin-induced drug resistance in Staphylococcus aureus ATCC 25923 at sub-MIC measured upto 15 passages; format: functional, organism-based
[24] = tested on: Staphylococcus aureus; experiment: Antibacterial activity against methicillin-resistant Staphylococcus aureus ATCC 33591 infected in Balb/c mouse model of skin wound infection assessed as reduction in inflammatory cell infiltration in skin at 10 mg/kg, ip administered thrice at 1, 24 and 48 hrs post-infection measured after 14 days by H and E staining based analysis; format: functional, organism-based; conditions: time 14.0 day
[25] = tested on: Staphylococcus aureus; experiment: Induction of morphological changes in methicillin-resistant Staphylococcus aureus ATCC 33591 assessed as bacterial membrane folds at 2 times MIC incubated for 2 hrs by SEM analysis; format: functional, organism-based
[26] = Toxicity in Balb/c mouse assessed as spleen atrophy at 80 mg/kg, ip measured after 7 days; format: organism-based; conditions: in vivo, 168 h, time 7 day
[27] = tested on: Staphylococcus aureus; experiment: Antibacterial activity against methicillin-resistant Staphylococcus aureus ATCC 33591 infected in Balb/c mouse model of acute systemic infection assessed as reduction in inflammatory cell infiltration in kidney at 10 mg/kg, ip measured after 5 days by H and E staining based analysis; format: functional, organism-based; conditions: time 5.0 day
[28] = tested on: Staphylococcus aureus; experiment: Antibacterial activity against methicillin-resistant Staphylococcus aureus ATCC 33591 infected in Balb/c mouse model of acute systemic infection assessed as reduction in bleeding in heart at 10 mg/kg, ip measured after 5 days by H and E staining based analysis; format: functional, organism-based; conditions: time 5.0 day
[29] = tested on: Staphylococcus aureus; experiment: Anti-biofilm activity against methicillin-resistant Staphylococcus aureus ATCC 33591 at 8 uM incubated for 24 hrs by MTT assay; format: functional, organism-based
[30] = tested on: Staphylococcus aureus; experiment: Synergistic antibacterial activity against methicillin-resistant Staphylococcus aureus ATCC 33591 assessed as fractional inhibitory concentration index upto 2 times MIC incubated for 18 to 24 hrs in presence of polymyxin B by checkerboard assay; format: functional; conditions: time 18-24 hrs

For `CCCCCCCCCCCC(=O)N[C@H](CCCNC(=N)N)C(=O)N[C@H](CCCNC(=N)N)C(=O)N[C@H](Cc1c[nH]c2ccccc12)C(=O)O`, the Activity [1] was “Active”, the Activity [2] was “Active” and the MIC [3] was 8 µM. The “fold change (FC)” value [4] was 8, the inhibition [5] was “Active” and the Activity [6] was “Toxic”. The Activity [7] was “Active”, the inhibition [8] was “Active” and the Activity [9] was “Active”. It also gave an MIC [10] of 4 µM (≈ 2.8 µg/mL), an MIC [11] of 8 µM (≈ 5.59 µg/mL) and a survival at 168 h [12] of 62.5%. For the same compound, the MIC [13] was 2 µM (≈ 1.4 µg/mL), the Activity [14] was “Active” and the Activity [15] was “Active”. For the same compound, the Activity [16] was “Active”, the Activity [17] was “Active” and the Activity [18] was “Non-toxic”. The MIC [19] was 8 µM, the Activity [20] was “Time-dependent-effect” and the Activity [21] was “Active”. For the same compound, the Activity [22] was “Toxic”, the inhibition [23] was “Active” and the Activity [24] was “Active”. For the same compound, the Activity [25] was “Active”, the Activity [26] was “Toxic” and the Activity [27] was “Active”. For the same compound, the Activity [28] was “Active”, the Activity [29] was “Active; Compound Activity Was Slightly Weaker Than Vancomycin But Significantly Better Than Polymyxin B, Imipenem, Ciprofloxacin And Gentamicin” and the “fractional inhibitory concentration index (FICI)” value [30] was 0.125.
